Laboratory results from US8951752B2, “N-demethyase genes and uses thereof” (priority 2011, dated 2015).

Target: T1, NdmB-His6 (Pseudomonas putida, UniProt H9N290)
T1 construct: made in house; host or cells: E. coli BL21(DE3)
T1 sequence (H9N290 1-355): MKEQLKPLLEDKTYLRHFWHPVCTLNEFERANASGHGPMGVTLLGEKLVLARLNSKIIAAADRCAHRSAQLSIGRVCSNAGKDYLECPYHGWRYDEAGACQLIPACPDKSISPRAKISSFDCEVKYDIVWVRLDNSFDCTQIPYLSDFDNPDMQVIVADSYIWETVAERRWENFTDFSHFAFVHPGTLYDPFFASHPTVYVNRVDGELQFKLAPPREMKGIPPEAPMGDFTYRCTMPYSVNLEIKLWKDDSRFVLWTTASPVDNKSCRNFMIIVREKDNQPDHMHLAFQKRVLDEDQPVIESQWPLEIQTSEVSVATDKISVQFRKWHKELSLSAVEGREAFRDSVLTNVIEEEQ
Assay: Methylxanthine N-demethylase assay and kinetics, NdmB-His6 with His6-NdmD
Type: biochemical, Pseudomonas putida CBB5
Conditions: NdmB-His6
Method: Methylxanthine N-demethylase activity assay contained, in 1-ml total volume, 0.5 mM methylxanthine, 1 mM NADH, 50 μM Fe(NH4)2(SO4)2, and an appropriate amount of NdmA-His6 or NdmB-His6 (7.4 μg-2.5 mg protein depending on substrate specificity) in 50 mM KPi buffer (pH 7.5). Approximately 4 U of partially purified reductase, prepared as described previously (Summers et al., 2011) or 59 U of purified His6-NdmD was added to reaction mixture. Catalase from bovine liver (4,000 U) was also added to reactions containing His6-NdmD. The reaction mixture was incubated at 30° C. with 300 rpm shaking on an incubating microplate shaker (VWR, Radnor, Pa.). Periodically, a small aliquot was sampled from the reaction mixture and mixed with equal volume of acetonitrile for quantifying concentrations of methylxanthines and N-demethylated products by HPLC. One unit of N-demethylase activity was defined as the consumption of one […] methylxanthine per minute.
Apparent kinetic parameters of NdmA-His6 and NdmB-His6 were determined by measuring the initial rate of disappearance (vo) of methylxanthines in 50 mM KPi buffer (pH 7.5) at 30° C. The initial substrate concentrations (ESI) used in these experiments were from 25 to 500 μM. Substrates were incubated with His6-NdmD plus either NdmA-His6 or NdmB-His6 under standard conditions for 15 minutes. At 1, 5, 10, and 15 minutes, samples were removed from the reaction mixtures to quantitate substrate concentrations by HPLC. Plots of substrate concentrations against time were used to determine the initial rates of disappearance of substrates which were linear over 15 minutes. The apparent kinetic parameters were determined from Michaelis-Menten plots of vo against [S] fitted with the equation

**Q.** Cn1cnc2c1c(=O)[nH]c(=O)n2C [Theobromine, 3,7-dimethylxanthine] was tested. Which Product did it give?
**A.** 7-methylxanthine
